# From patent US10022345B2, “Agent for preventing and/or treating veisalgia” (SBI Pharmaceuticals Co., Ltd., priority 2011, dated 2018)
# Where “and” joins values, the source holds several entries; their conditions need not be identical. Equal values may be shown once. Entries after “also recorded” stand apart in the source; their conditions may differ.
# Legend:
# [1] = Example 9: questionnaire total score of ten hangover symptoms with and without ALAs ingestion, fifteen test subjects; assay type: in vivo, human; conditions: for Total score After alcohol consumption (same day) / Total score Morning after alcohol consumption: ALAs ingested (10-150 mg total, differs per subject), sum of ten hangover symptom items each scored 0-4, one line per test subject 1-15
# Protocol: The following tests were performed to more quantitatively measure that ALAs are effective for the prevention or therapy of a hangover.
# In this experiment, aminolevulinic acid phosphate salt was employed as ALAs.
# Each test subject, consumed alcohol in the evening for a total of two times in order to evaluate hangover symptoms in regards to each of (1) when ALAs was ingested and (2) when ALAs was not ingested. In the experiment with ALAs ingestion and the experiment without ALAs ingestion, the order for which of the experiments was performed first and the other of the experiments was performed, later was randomly selected for each test subject. Each experiment was performed with at least a few days apart.
# Total amount of alcohol consumption varies by test subject. This is because a moderate amount for each test subject was consumed. Moreover, alcohol consumption was made so that the total amount of the second alcohol consumption was the same as the total amount of the first alcohol consumption (note that as exceptions, (1) the total amount of alcohol consumption when ALAs was ingested and (2) the total amount of alcohol consumption when ALAs was not ingested are not the same for test subjects 1, 2, and 12 in Table 5 below). In Table 5 below, the “total amount of alcohol consumption” indicates a value converted into the total amount of alcohol contained in beer or Japanese sake etc. consumed (in other words, in the case of a 500 ml canned beer, if the alcohol percentage is 5%, it is calculated as […]).
# Moreover, for each test subject, the timing of ALAs ingestion (1) when ALAs was ingested was “at the start of alcohol consumption” and/or “after the end of alcohol consumption” as shown in Table 5 below. The ingestion of ALAs (aminolevulinic acid phosphate salt) was performed by selecting at least one from below:
# (A) the capsule of Example 1 (contains 50 mg of ALAs),
# (B) the capsule of Example 3 (contains 10 mg of ALAs),
# (C) “Hanamitsu Drink™” (contains 5 or 10 mg of ALAs, a product generally marketed by the present applicants) for each test subject, ingested in the range of 10 mg-150 mg total.
# (A) The body condition “after alcohol consumption on the day of alcohol consumption” (“after alcohol consumption (same day)” in Table 5) and (B) the body condition on “the morning after the day of alcohol consumption” (“morning after alcohol consumption” in Table 5) were quantified with the following scores. In other words, a five-step evaluation (0: no indication, 1: mild, 2: moderate, 3: severe, and 4: profound) was performed for each test subject in regards to the following ten items (a-j) which are hangover symptoms. Then, evaluation values (0-4) for each item were summed for each test subject. The results are described in Table 5 as the “total score” showing hangover symptoms.
# [2] = Example 8: case of hangover therapy, test subject A, capsule of aminolevulinic acid; assay type: in vivo, human; conditions: terrible hangover, one capsule comprising 100 mg
# Protocol: Test subject A who consumed Japanese sake similarly to Example 7 without ingesting any capsules developed a terrible hangover condition. Test subject A ingested one capsule comprising 100 mg of aminolevulinic acid. As a result, symptoms started to recover after 30 minutes had passed since administration, and they had completely recovered after 1.5 hours.
# [3] = phosphate salt, 10 mg ALAs with 60 mL alcohol
# [4] = phosphate salt, 20 mg ALAs with 70 mL alcohol
# [5] = phosphate salt, 50 mg ALAs with 14 mL alcohol
# [6] = phosphate salt, 50 mg ALAs with 25 mL alcohol
# [7] = phosphate salt, 50 mg ALAs with 45 mL alcohol
# [8] = phosphate salt, 50 mg ALAs with 79 mL alcohol
# [9] = phosphate salt, 50 mg ALAs with 108 mL alcohol
# [10] = phosphate salt, 100 mg ALAs with 50 mL alcohol
# [11] = phosphate salt, 100 mg ALAs with 75 mL alcohol
# [12] = phosphate salt, 100 mg ALAs with 190 mL alcohol
# [13] = phosphate salt, 150 mg ALAs with 129 mL alcohol
molecule,measurement,setting,value
aminolevulinic acid phosphate salt [ALAs],Total score After alcohol consumption (same day),[1]; [3],9
same,Total score Morning after alcohol consumption,[1]; [3],2
same,Total score After alcohol consumption (same day),[1]; [4],1
same,Total score Morning after alcohol consumption,[1]; [4],1
same,Total score After alcohol consumption (same day),[1]; [5],0
same,Total score Morning after alcohol consumption,[1]; [5],0
same,Total score After alcohol consumption (same day),[1]; [6],0 (2×) and 3
same,Total score Morning after alcohol consumption,[1]; [6],0 (2×) and 3
same,Total score After alcohol consumption (same day),[1]; [7],0
same,Total score Morning after alcohol consumption,[1]; [7],0
same,Total score After alcohol consumption (same day),[1]; [8],0
same,Total score Morning after alcohol consumption,[1]; [8],0
same,Total score After alcohol consumption (same day),[1]; [9],0
same,Total score Morning after alcohol consumption,[1]; [9],0
same,Total score After alcohol consumption (same day),[1]; [10],1
same,Total score Morning after alcohol consumption,[1]; [10],1
same,Total score After alcohol consumption (same day),[1]; [11],0
same,Total score Morning after alcohol consumption,[1]; [11],1 and 0 and 2
same,Total score After alcohol consumption (same day),[1]; [12],9
same,Total score Morning after alcohol consumption,[1]; [12],7
same,Total score After alcohol consumption (same day),[1]; [13],0
same,Total score Morning after alcohol consumption,[1]; [13],1
same,amount of alcohol consumption possible,"[1]; ALAs ingested at the start of alcohol consumption, test subjects 1 and 2",Alcohol consumption at an amount more than usual was possible
same,"hangover symptoms with ALAs ingestion compared to without, conclusions from Table 5","[1]; subgroups of test subjects, phosphate salt",hangover symptoms were surprisingly mostly reduced; also recorded: Hangover symptoms were generally improved and a prophylactic effect of hangovers was seen; also recorded: no hangover symptoms manifested
"NCC(=O)CCC(=O)O [aminolevulinic acid, 5-aminolevulinic acid]",time after administration until hangover symptoms started to recover,[2],30 min
same,time until complete recovery from hangover,[2],1.5 h
